Patent US20140194529A1, “USAGE OF NATURAL COMPOUND FOR TREATING INFLAMMATION AND CANCER” (Hong Kong Baptist University, priority 2013, published 2014)
Where two headings read alike, the source gives them in different places. One block for each compound: values may come before it.

Columns and labels:
Assay type in all cases: cell-based
[1] = tested on: iNOS-induced NO generation in RAW 264.7 cells; assay: NO accumulation in LPS/IFN-γ stimulated RAW 264.7 cells (Griess reaction); conditions: 24 hours
Method: (§1) RAW264.7 were maintained in RPMI 1640 medium supplemented with 10% FBS at 37° C. in a humidified 5% CO2 atmosphere. Cells were plated in a 96-well plate (5×10^3 cells/well) and allowed to attach overnight. The cells were then stimulated with 10 U/ml of IFN-γ and 100 ng/ml of LPS for 24 hours in the presence or absence of GE with final concentration of 50, 25, 12.5, 6.25, 3.125 μg/mL, and Indometacin as positive drug.
as §1, with “For stimulation, the medium was replaced with fresh FBS-free RPMI 1640 for 10 hours, and the” for “The”, “extractions or fractions.” for “GE with final concentration of 50, 25, 12.5, 6.25, 3.125 μg/mL, and Indometacin as positive drug.”
iNOS function was analyzed with Griess reaction by assay of nitrite concentration in the culture supernatant. Briefly, 100 μl/well of sample was incubated with equal volume of Griess solution (1% sulfanilamide in 5% phosphoric acid+1% α-naphthylamine in distilled water) at room temperature for 10 minutes. The absorbance was evaluated at 540 nm using a calibration curve with a sodium nitrite standard. Percent inhibition was expressed as [1−(NO level of sample/NO level of vehicle treated−control)]×100.

MCF-7 = assay: Cell cytotoxicity, MTT method; conditions: read-out: The cell cytotoxicity effect, IC50
Method: (§2) RAW 264.7 cells were obtained from the American Tissue Culture Collection (ATCC). Liver cancer line SMMC-7721 and HepG2, breast cancer lines including MCF-7 and MDA-MB-231 were purchased from cell-bank of Chinese Academy of Sciences, China. These cells were maintained in complete RPMI 1640 medium supplemented with 10% FBS at 37° C. in a humidified 5% CO2 atmosphere.
(§3) SMMC-7721 and HepG2, MCF-7 and MDA-MB-231 were seeded into 96-well plates (3×10^3 cells/well) and allowed to attach overnight. GE were added in final concentration of 50, 25, 12.5, 6.25, 3.125 μg/mL and continually cultured for 72 hours. Taxol as positive drug. Each well was incubated with 20 μl MTT (5 mg/ml in phosphate-buffered saline) for 4 hours at 37° C. Volume of 150 μl DMSO was added after the medium in well discarded and reacted for 10 minutes. Absorbance was measured at 490 nm. The optical density of formazan formed in control (untreated) cells was taken as 100% of viability. Mean value of each concentration (n=3 wells) was obtained.

SMMC-7721 = assay: Cell cytotoxicity, MTT method; conditions: SMMC-7721, 72 hours, read-out: The cell cytotoxicity effect, IC50
Method: as §2, §3

HepG2 = assay: Cell cytotoxicity, MTT method; conditions: HepG2, 72 hours, read-out: The cell cytotoxicity effect, IC50
Method: as §2, §3

MDA-MB-231 = assay: Cell cytotoxicity, MTT method; conditions: MDA-MB-231, 72 hours
Method: as §2, §3

[2] = tested on: breast cancer lines and liver cancer lines; assay: Cell cytotoxicity, MTT method (summary in conclusion)
Method: as §2, §3

Compound: COc1ccc2c(c1)c(CC(=O)O)c(C)n2C(=O)c1ccc(Cl)cc1 [Indometacin, reference compound]
inhibition at 1 µg/mL ([1]; Mus musculus, RAW264.7, 1 μg/mL, RAW 264.7, IFN-γ + LPS, read-out: The inhibitory effect on NO accumulation): 46.5%

Compound: CC(=O)O[C@H]1C(=O)[C@@]2(C)[C@H]([C@H](OC(=O)c3ccccc3)[C@]3(O)C[C@H](OC(=O)[C@H](O)[C@@H](NC(=O)c4ccccc4)c4ccccc4)C(C)=C1C3(C)C)[C@]1(OC(C)=O)CO[C@@H]1C[C@@H]2O [Taxol, reference compound]
IC50 (MCF-7; Homo sapiens, MCF7, MCF-7, 72 hours): 0.003 µM
IC50 (SMMC-7721; Homo sapiens): 0.15 µM
IC50 (HepG2; Homo sapiens): 0.00044 µM
IC50 (MDA-MB-231; Homo sapiens, read-out: The cell cytotoxicity effect, IC50): 5 µM

The inhibitory effect on NO accumulation, IC50 ([1]; RAW 264.7, 10 U/ml IFN-γ + 100 ng/ml LPS): 3.57 mg/L
IC50 ([1]; RAW 264.7, 10 U/ml IFN-γ + 100 ng/ml LPS, read-out: The inhibitory effect on NO accumulation, IC50): 5.78 µM
Compound: Garcimultiflorone E [GE]
Concentration at which proliferation is inhibited [2]: about 10 μM
IC50 (MCF-7; MCF-7, 72 hours): 9.63 µM
IC50 (SMMC-7721): 11.9 µM
IC50 (HepG2): 13.2 µM
Effect on proliferation (in words) (MDA-MB-231): no effect
